Data published in ChEMBL document CHEMBL1201862, “PubChem BioAssay data set” (2004).
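In this assay, cells in 96-well plates receive the compound at five concentrations for 48 hours. Endpoints are linearly interpolated between the surrounding concentrations. GI50 = concentration required for 50% inhibition of growth.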 Activity calls are given as the source filed them. Cut-off read from the data, not from the text of the source: active = GI50 up to about 1.1 µM and inactive = higher.

How the values were obtained:
Experiment in all cases: growth of human tumour cells (NCI), 48 h
[1] = test system: EKVX
[2] = test system: HCT-116
[3] = test system: DLD-1
[4] = test system: RPMI-8226
[5] = test system: SK-MEL-28
[6] = test system: HOP-18
[7] = test system: RXF 393
[8] = test system: XF498
[9] = test system: HCT-15
[10] = test system: NCI-H460
[11] = test system: LXFL 529
[12] = test system: UACC-257
[13] = test system: NCI-H23
[14] = test system: DMS-273
[15] = test system: DMS-114
[16] = test system: SF-268

SMILES	GI50 [1]	GI50 [2]	GI50 [3]	GI50 [4]	GI50 [5]	GI50 [6]	GI50 [7]	GI50 [8]	GI50 [9]	GI50 [10]	GI50 [11]	GI50 [12]	GI50 [13]	GI50 [14]	GI50 [15]	GI50 [16]
COc1ccc(C(c2ccc(C(C)C)cc(=O)c2O)c2c(O)cc3oc(-c4ccccc4)cc(=O)c3c2O)cc1 (stereo not given)	12.6 µM (inactive)	2.81 µM (inactive)	4.11 µM (inactive)	6.21 µM (inactive)	17.1 µM (inactive)	17.3 µM (inactive)	3.71 µM (inactive)	9.4 µM (inactive)	6.9 µM	3.37 µM (inactive)	14 µM (inactive)	27.4 µM (inactive)	4.79 µM (inactive)	5.08 µM (inactive)		
CCCNC(=O)C(C)C1CCC2(C)C=CC(=O)C(C)=C2C1O (stereo not given)	> 100 µM (inactive)	> 100 µM (inactive)	> 100 µM (inactive)	> 100 µM (inactive)	> 100 µM (inactive)	> 100 µM (inactive)	> 100 µM (inactive)	> 100 µM (inactive)	> 100 µM	> 100 µM (inactive)		> 100 µM (inactive)	> 100 µM (inactive)	> 100 µM (inactive)	> 100 µM (inactive)	> 100 µM (inactive)
Cc1nc2ccc(C(F)(F)F)cc2nc1Nc1ccc(Cl)c(Cl)c1	> 10 µM (inactive)	10.5 µM (inactive)	9.42 µM (inactive)	8.17 µM (inactive)	12.2 µM (inactive)	15.3 µM (inactive)	6.49 µM (inactive)	10 µM (inactive)	6.12 µM	2.65 µM (inactive)	7.87 µM (inactive)	12.8 µM (inactive)	12.6 µM (inactive)	4.81 µM (inactive)		13.8 µM (inactive)
C[C@H]1COC(c2ccccn2)=N1	> 100 µM (inactive)	> 100 µM (inactive)	> 100 µM (inactive)	> 100 µM (inactive)	> 100 µM (inactive)	> 100 µM (inactive)	> 100 µM (inactive)	> 100 µM (inactive)	> 100 µM	> 100 µM (inactive)		> 100 µM (inactive)	> 100 µM (inactive)	> 100 µM (inactive)		> 100 µM (inactive)
N#Cc1ccccc1C(Cl)(Cl)c1cnccn1	40 µM (inactive)		47.3 µM (inactive)		51.2 µM (inactive)	> 100 µM (inactive)	26.4 µM (inactive)	17.9 µM (inactive)		47.4 µM (inactive)	75.9 µM (inactive)	88.1 µM (inactive)	38.5 µM (inactive)	37.2 µM (inactive)	22.4 µM (inactive)	52.5 µM (inactive)
NCCCCNCCCNC(=O)c1nc(-c2nc(CCN)sc2Cl)sc1Cl	> 100 µM (inactive)	9.48 µM (inactive)	83 µM (inactive)	31.3 µM (inactive)	46.5 µM (inactive)		12.4 µM (inactive)	> 100 µM (inactive)	> 100 µM	27.7 µM (inactive)	3.46 µM (inactive)	> 100 µM (inactive)	37.9 µM (inactive)	50.4 µM (inactive)	18.8 µM (inactive)	6.98 µM (inactive)
CC(=O)n1nnc2ccc([N+](=O)[O-])cc21	> 100 µM (inactive)	> 100 µM (inactive)	> 100 µM (inactive)	> 100 µM (inactive)	> 100 µM (inactive)	90.6 µM (inactive)	> 100 µM (inactive)	> 100 µM (inactive)		> 100 µM (inactive)	> 100 µM (inactive)	> 100 µM (inactive)	> 100 µM (inactive)	> 100 µM (inactive)	> 100 µM (inactive)	> 100 µM (inactive)
CC1=N/C(=C/c2ccc3c(c2)OCO3)C(=O)O1	> 100 µM (inactive)	> 100 µM (inactive)		> 100 µM (inactive)	> 100 µM (inactive)	> 100 µM (inactive)	> 100 µM (inactive)	> 100 µM (inactive)	> 100 µM		> 100 µM (inactive)	> 100 µM (inactive)	> 100 µM (inactive)	> 100 µM (inactive)	> 100 µM (inactive)	> 100 µM (inactive)
CCNCCCCNCC	> 3750 µM (inactive)	> 2480 µM (inactive)	> 3750 µM (inactive)	> 3750 µM (inactive)	> 3750 µM (inactive)	> 37.5 µM (inactive)	> 3260 µM (inactive)	> 3750 µM (inactive)	> 3750 µM	525 µM (inactive)		> 3750 µM (inactive)	> 3750 µM (inactive)	> 2550 µM (inactive)	> 3600 µM (inactive)	> 2990 µM (inactive)
C#C[C@H](CCCC)OC(=O)N[C@H](C)c1ccccc1	50.6 µM (inactive)	24 µM (inactive)	55.2 µM (inactive)	24.5 µM (inactive)	54.5 µM (inactive)	> 100 µM (inactive)	30.9 µM (inactive)	84.1 µM (inactive)		58.2 µM (inactive)	36.3 µM (inactive)	24.8 µM (inactive)		38.8 µM (inactive)	28.2 µM (inactive)	63.7 µM (inactive)
CC(=O)C1CC(C)=CCC12C(=O)Nc1ccccc12 (stereo not given)	> 100 µM (inactive)	> 100 µM (inactive)	> 100 µM (inactive)	> 100 µM (inactive)	> 100 µM (inactive)	> 100 µM (inactive)	13.9 µM (inactive)	> 100 µM (inactive)	> 100 µM	> 100 µM (inactive)	> 100 µM (inactive)		> 100 µM (inactive)	> 100 µM (inactive)	> 100 µM (inactive)	> 100 µM (inactive)
CC1=NN(c2ccccc2)C(=O)C12[C@H](c1ccccc1)C2(C#N)C#N (stereo not given in full)	18.3 µM (inactive)	3.21 µM (inactive)	2 µM (inactive)	1.91 µM (inactive)	3.48 µM (inactive)	7.48 µM (inactive)	5.19 µM (inactive)	3.4 µM (inactive)	2.49 µM	17.5 µM (inactive)	1.96 µM (inactive)	5.96 µM (inactive)	2.85 µM (inactive)	2.67 µM (inactive)		7.26 µM (inactive)
NC(=O)c1ccccc1NC(=O)C(=O)Nc1n[nH]c(N)n1	> 100 µM (inactive)	> 100 µM (inactive)	> 100 µM (inactive)	> 100 µM (inactive)		> 100 µM (inactive)	> 100 µM (inactive)	> 100 µM (inactive)	> 100 µM	> 100 µM (inactive)	> 100 µM (inactive)	> 100 µM (inactive)	> 100 µM (inactive)	> 100 µM (inactive)		
COc1ccc2nc3c(C(=O)NCCN(C)C)cccc3cc2c1	2.34 µM (inactive)	0.908 µM (active)	2.16 µM (inactive)	2.16 µM (inactive)	2.98 µM (inactive)	> 100 µM (inactive)	1.78 µM (inactive)	1.85 µM (inactive)	2.25 µM	0.724 µM (active)		2.11 µM (inactive)	2.09 µM (inactive)	1.28 µM (inactive)	1.91 µM (inactive)	2.82 µM (inactive)
NC(Cc1cc(I)c(O)c(I)c1)C(=O)O (stereo not given)	> 316 µM (inactive)	470 µM (inactive)	418 µM (inactive)	> 500 µM (inactive)	> 500 µM (inactive)	466 µM (inactive)	252 µM (inactive)	> 348 µM (inactive)	307 µM	301 µM (inactive)		293 µM (inactive)	> 287 µM (inactive)	> 206 µM (inactive)	185 µM (inactive)	> 484 µM (inactive)
CC(=O)OC(C)C(=O)C1c2cccc(O)c2C(=O)c2c(O)cc(C)cc21 (stereo not given)	1.36 µM (inactive)	0.31 µM (active)	1.75 µM (inactive)	0.991 µM (active)	1.01 µM (active)	1.12 µM (inactive)	0.259 µM (active)	0.234 µM (active)	0.479 µM	0.375 µM (active)		0.41 µM (active)	0.324 µM (active)	0.634 µM (active)	0.188 µM (active)	0.381 µM (active)
CC(=O)Nc1cccc2[nH]c3ccccc3c(=O)c12	25.1 µM (inactive)	11.5 µM (inactive)	15.3 µM (inactive)	14.7 µM (inactive)	31.5 µM (inactive)	6.82 µM (inactive)		23.1 µM (inactive)	14.2 µM	17 µM (inactive)		25.2 µM (inactive)	12.3 µM (inactive)	32.2 µM (inactive)	25.6 µM (inactive)	26.7 µM (inactive)
[N-]=[N+]=CC(=O)CCC(NC(=O)C(CCC(=O)C=[N+]=[N-])NC(=O)CCC(N)C(=O)O)C(=O)O (stereo not given)	> 100 µM (inactive)	> 100 µM (inactive)	> 100 µM (inactive)	> 100 µM (inactive)	> 100 µM (inactive)	> 100 µM (inactive)	> 100 µM (inactive)	> 100 µM (inactive)	> 100 µM	> 100 µM (inactive)		> 100 µM (inactive)	> 100 µM (inactive)	> 100 µM (inactive)	> 100 µM (inactive)	> 100 µM (inactive)
COc1ccc2c(c1)O[C@H]1c3ccc(O)cc3OC[C@@H]21	34 µM (inactive)	27.6 µM (inactive)	34.8 µM (inactive)	25.7 µM (inactive)		93.5 µM (inactive)	19.3 µM (inactive)	20.5 µM (inactive)	34.1 µM	35.1 µM (inactive)	25.4 µM (inactive)	21.8 µM (inactive)	26 µM (inactive)	30.9 µM (inactive)		28.1 µM (inactive)
